# According to a melting point compilation (Tetko et al.; mined from patent text by program, amines drawn as free bases though some values may be those of a salt):
row,Structure (SMILES),melting point [°C]
1,Cc1cc(C)c2c(c1C)C(C(=O)O)=C(Cl)C2=O,194
2,Oc1cc(-c2c3ccccc3c(Br)c3sc4ccccc4c23)ccc1Br,111 to 112
3,"O=C(O)C1CCc2ccccc2O1 (single isomer, unassigned; (+))",85.5
4,CCOC(=O)COc1cccc(C(=O)Nc2ccccc2Sc2ccc(-c3nnn[nH]3)cc2)c1,88 to 90
5,CCCC[C@H]1[C@@H](O)CC[C@@]2(C)CC[C@@H]3C[C@]12OC3(C)C,47 to 48
6,COCc1c(C(=O)OC)c2cc(O)ccc2n1C,168 to 170
7,O=C1Nc2cc(Cl)cc3c2N(CC3)c2ccccc21,252 to 255
8,CC(C)(C)OC(=O)Nc1c(C#N)cnn1-c1ccc(Cl)c(Cl)c1Cl,140 to 141
9,CC1(C)C2CC=C(CCn3c(=O)nc(-c4ccccc4)c4cc([N+](=O)[O-])ccc43)C1C2 (centres undefined),80 to 81
10,COc1nc(NC(=O)NS(=O)(=O)c2ccccc2S(=O)(=O)N2CCC2)nc(OC)n1,175 to 177
11,Cc1cn([C@H]2C=C[C@@H](O)C2)c(=O)nc1N (racemic),190 to 192
12,CC(=O)Nc1coc2ccc(C(C)(C)C)cc2c1=S,215
13,COc1ccc(-c2csc(Nc3ccc(C)cn3)n2)cc1,246 to 248
14,CCOC(=O)Cc1cc(Cl)cc(C(=O)c2ccccc2)c1N,80 to 82
15,C[Si](C)(C)O[Si]1(O[Si](C)(C)C)O[Si](O[Si](C)(C)C)(O[Si](C)(C)C)O[Si](O[Si](C)(C)C)(O[Si](C)(C)C)O1,103
16,CC(C)(C)c1ccc(-c2ccc(-c3ccc(Br)s3)s2)cc1,132 to 136
17,CCOC(=O)C(NC(=O)N1CCc2cc(S(=O)(=O)N3CCN(c4cccc(Cl)c4)CC3)ccc21)C(C)C (centres undefined),143 to 144
18,COC(=O)c1c(C(C)C)c(S(=O)(=O)c2ccc(O)cc2)c2ccccn12,199
19,ON=C(c1ccccc1)c1cccc2nc(N[C@@H]3CCc4ccccc43)ccc12,176
20,Cc1c(-c2ccccc2)c(N2CC[C@H](N(C)C)C2)c2oc(C(C)(C)F)nc2c1C#N,130 to 132

row,Structure (SMILES),melting point [°C]
1,O=C(CC1CCCCC1)Nc1c(Cl)ccc2nc(N3CC[C@H](NCCc4nn[nH]n4)C3)ccc12,220 to 221
2,O=C(O)c1cccc(CC2COc3cc(O)ccc3C2=O)c1 (centres undefined),234 to 236
3,CC(=O)c1ccc2c(c1)C(C)(C)C(O)CC2(C)C (centres undefined),121 to 124
4,COc1cc2cc(C(=O)N3CC(CCl)c4c3cc(OCc3ccccc3)c3ncccc43)[nH]c2c(OC)c1OC (centres undefined),182 to 184
5,CCOc1ccccc1[C@H]1O[C@H](CC(=O)O)C(=O)N(CC(C)C)c2ccc(Cl)cc21 (relative stereo),190 to 192
6,CCCCCCCCCCCCCCCCCCOc1cc(OCCCCC(=O)OC)cc(N(CC(=O)OCc2ccccc2)CC(=O)OCc2ccccc2)c1,48 to 50
7,CC(=O)Oc1cc2nc[nH]c(=O)c2cc1OC(C)=O,235 to 237
8,COc1cccc(N2CCN(S(=O)(=O)c3ccc(/C=C/C(=O)NO)cc3)CC2)c1,199 to 200
9,CCC1Cc2cc(OC)c(Cl)c(Cl)c2C1=O (centres undefined),146 to 147
10,CC(=O)NC[C@H]1CN(c2ccc(N3CCC4(CC3)CO4)c(F)c2)C(=O)O1,152 to 154
11,CC(CC(=O)Nc1cccc(/C=C/c2nc(C3CCC3)cs2)c1)C(=O)O (centres undefined),165 to 167
12,CN(C)c1ccc(Nc2ncc(C(=O)O)c(=O)[nH]2)cc1,261 to 263
13,CN1C(=O)NCc2cccnc21,140 to 143
14,Cc1cccc(N2CCN(CCc3c(C)nc4cc(C)ccn4c3=O)CC2)c1,96 to 97
15,COc1cnc(CCl)nc1O,87
16,Cc1ccc2nc(NC(=O)c3ccc(C(C)(C)C)cc3)cn2c1,259 to 260
17,CCC(=O)c1ccc2c(c1)C1(CC1)C(=O)N2,183 to 185
18,N=C(N)NN=C1CCc2ccc(N)cc21,> 280
19,COc1ccc2nc3ccc(CC(=O)O)cn3c(=O)c2c1,281 to 282
